Measurements published in ChEMBL document CHEMBL5728216, “Cyclopropyl fused thiazine derivatives as beta-secretase inhibitors and methods of use” (2021).

Experiments:
Cathepsin D = Cathepsin D (Homo sapiens, UniProt P07339); experiment: In Vitro Enzymatic FRET Assay: Recombinant CatD was expressed in CHO cells. The assay buffer for CatD was 0.05 M citrate pH 3.5, 10% DMSO final, 5 mM CHAPS. The CatD enzyme (9 nM) was pre-incubated for one hour with inhibitors, typically in about 1 uL of DMSO according to a serial dilution, is added thereto. The assays was effectively started by the addition of different FRET substrates (20 nM for CatD) and the combination was incubated for one hour. The FRET assay was terminated with by addition of tris buffer, which raises the pH to neutrality, and the fluorescence was determined. The FRET substrate was a peptide with commercially available fluorophore and quencher, on opposite sides of the CatD cleavage site. The CatD substrate peptide sequence was based on sequence #1 of Table 1 from Gulnik et al., FEBS Lett. 413(2):379-384 (1997). Proteolytic cleavage of the FRET substrate released quenching of fluorescence (CatD excitation 500 nm and emission 580 nm).; type: cell-based
Cathepsin D, sequence (P07339 65-162 limits assumed): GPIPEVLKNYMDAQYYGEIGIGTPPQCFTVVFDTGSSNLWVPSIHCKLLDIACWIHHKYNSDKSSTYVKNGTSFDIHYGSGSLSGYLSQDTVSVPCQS
Cathepsin D, sequence (P07339 169-412 limits assumed): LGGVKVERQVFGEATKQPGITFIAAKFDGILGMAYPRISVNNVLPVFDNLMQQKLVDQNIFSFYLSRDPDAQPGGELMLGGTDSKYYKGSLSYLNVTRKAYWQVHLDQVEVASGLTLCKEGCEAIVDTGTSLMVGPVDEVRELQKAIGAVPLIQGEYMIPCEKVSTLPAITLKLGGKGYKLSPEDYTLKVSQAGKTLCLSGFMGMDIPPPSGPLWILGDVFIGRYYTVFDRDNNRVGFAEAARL

Beta-secretase 2 = target: T1, Beta-secretase 2 (Homo sapiens, UniProt Q9Y5Z0); experiment: These recombinant proteins were further purified using Ni-NTA affinity chromatography (Qiagen).
T1 sequence (Q9Y5Z0 whole entry): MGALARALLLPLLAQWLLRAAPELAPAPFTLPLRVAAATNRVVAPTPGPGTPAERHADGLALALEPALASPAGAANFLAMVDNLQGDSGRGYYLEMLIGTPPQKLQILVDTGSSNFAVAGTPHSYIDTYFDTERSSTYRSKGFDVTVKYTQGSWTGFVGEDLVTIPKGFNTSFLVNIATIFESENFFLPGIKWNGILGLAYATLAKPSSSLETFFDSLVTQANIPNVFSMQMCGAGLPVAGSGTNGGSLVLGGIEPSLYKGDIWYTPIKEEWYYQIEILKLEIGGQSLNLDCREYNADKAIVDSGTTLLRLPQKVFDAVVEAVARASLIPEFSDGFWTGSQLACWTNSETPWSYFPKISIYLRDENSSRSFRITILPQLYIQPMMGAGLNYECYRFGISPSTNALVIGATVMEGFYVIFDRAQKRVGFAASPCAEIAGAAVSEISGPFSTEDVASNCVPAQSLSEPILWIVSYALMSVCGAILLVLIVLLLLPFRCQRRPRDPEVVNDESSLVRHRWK

Beta-secretase 1 = Beta-secretase 1 (Homo sapiens, UniProt P56817); experiment: In Vitro Enzymatic FRET (Fluorescence Resonance Energy Transfer) Assays: The cDNAs for both human recombinant BACE1 and 2 with C-terminal 6-His Tags were cloned into transient protein expression vectors, which were subsequently transfected into mammalian cell lines. These recombinant proteins were further purified using Ni-NTA affinity chromatography (Qiagen). The assay buffer used in these screens was 0.05 M acetate, pH 4.5, 8% DMSO final, 100 μM genapol (which is a nonionic detergent, below its Critical Micelle Concentration). The β-secretase enzyme (0.02 nM for BACE1 and 0.64 nM for BACE2), which was pre-incubated for one hour with the test compound, typically in about 1 uL of DMSO according to a serial dilution, was added thereto. The assay was effectively started by the addition of FRET substrate (50 nM) and the combination was incubated for one hour. The FRET assay was terminated by the addition of tris buffer, which raised the pH to neutrality, and the fluorescence was determined. The FRET substrate was a peptide with commercially available fluorophore and quencher, on opposite sides of the BACE cleavage site. The specific FRET substrate used in this assay was made by Amgen in-house. […]
Beta-secretase 1, sequence (P56817 whole entry): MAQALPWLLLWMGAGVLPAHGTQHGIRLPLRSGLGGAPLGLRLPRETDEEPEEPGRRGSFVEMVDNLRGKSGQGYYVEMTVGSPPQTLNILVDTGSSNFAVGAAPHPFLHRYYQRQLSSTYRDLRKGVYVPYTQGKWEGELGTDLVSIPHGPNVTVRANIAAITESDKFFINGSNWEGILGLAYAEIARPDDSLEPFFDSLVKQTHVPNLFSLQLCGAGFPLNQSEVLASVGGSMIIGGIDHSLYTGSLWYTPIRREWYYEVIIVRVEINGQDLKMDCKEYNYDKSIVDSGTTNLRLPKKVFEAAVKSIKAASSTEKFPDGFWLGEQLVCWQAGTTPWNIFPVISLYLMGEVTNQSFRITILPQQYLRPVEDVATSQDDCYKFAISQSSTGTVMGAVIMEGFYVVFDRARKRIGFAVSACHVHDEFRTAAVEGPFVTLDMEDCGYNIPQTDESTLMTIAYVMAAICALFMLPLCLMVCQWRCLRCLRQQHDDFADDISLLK

For `COC[C@]12CC1[C@@](C)(c1cc(C#Cc3ncc(Cl)cc3C)ccc1F)N=C(N)S2` (stereo partly drawn), the IC50 (Cathepsin D) was > 400000 nM, the IC50 (Beta-secretase 2) was 613 nM and the IC50 (Beta-secretase 1) was 129 nM.
